The results in this text go back to patent US12275731B2, “Azaindole inhibitors of wild-type and mutant forms of LRRK2” (DANA-FARBER CANCER INSTITUTE, INC., priority 2018, dated 2025).

What all share (experiment): KinomeScan profiling
What all share (assay type): binding

One assay addresses T1, CAMK4 (Homo sapiens, UniProt Q16566).
T1 sequence (Q16566 1-473): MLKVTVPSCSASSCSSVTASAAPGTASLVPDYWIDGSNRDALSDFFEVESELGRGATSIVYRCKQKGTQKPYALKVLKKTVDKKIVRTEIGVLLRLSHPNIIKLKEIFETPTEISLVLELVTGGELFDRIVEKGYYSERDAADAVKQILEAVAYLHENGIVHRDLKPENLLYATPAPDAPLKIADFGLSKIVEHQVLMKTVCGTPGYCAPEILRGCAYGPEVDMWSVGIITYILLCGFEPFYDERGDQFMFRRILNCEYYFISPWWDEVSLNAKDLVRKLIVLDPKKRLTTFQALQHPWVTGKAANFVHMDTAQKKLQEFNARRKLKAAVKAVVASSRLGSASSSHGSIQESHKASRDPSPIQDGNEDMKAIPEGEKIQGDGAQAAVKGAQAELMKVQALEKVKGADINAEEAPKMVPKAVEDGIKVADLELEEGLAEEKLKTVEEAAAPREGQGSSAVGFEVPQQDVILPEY
Particulars: CAMK4, 1 μM; read-out: % control. The method in brief: (§1)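 Test agents were profiled at a single concentration of 1 μM (DMSO vehicle) on a near-complete set of 468 kinases. Signal is reported relative to vehicle (100%) and a fully displacing control (0%).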

Another assay addresses EGFR(L858R, T790M) (Homo sapiens, UniProt P00533, L858R/T790M). The following applies: read-out: % control. The method in brief:
as §1

In another assay the target is T2, ERK8 (Homo sapiens, UniProt Q8TD08).
T2 sequence (Q8TD08 1-544): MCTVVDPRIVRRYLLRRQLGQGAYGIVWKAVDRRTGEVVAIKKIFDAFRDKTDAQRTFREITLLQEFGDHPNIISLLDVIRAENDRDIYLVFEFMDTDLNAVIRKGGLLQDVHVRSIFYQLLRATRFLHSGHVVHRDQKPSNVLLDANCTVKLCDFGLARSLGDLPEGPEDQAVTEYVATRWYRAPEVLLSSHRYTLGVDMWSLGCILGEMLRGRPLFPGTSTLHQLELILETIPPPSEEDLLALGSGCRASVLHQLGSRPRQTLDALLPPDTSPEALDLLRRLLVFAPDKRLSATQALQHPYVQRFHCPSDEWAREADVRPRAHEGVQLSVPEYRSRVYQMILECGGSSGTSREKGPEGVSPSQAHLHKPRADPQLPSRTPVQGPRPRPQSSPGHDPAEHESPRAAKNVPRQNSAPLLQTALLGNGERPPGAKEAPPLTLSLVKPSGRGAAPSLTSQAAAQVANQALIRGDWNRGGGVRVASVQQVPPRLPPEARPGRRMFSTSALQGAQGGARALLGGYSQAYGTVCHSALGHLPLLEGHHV
Particulars: ERK8, 1 μM; read-out: % control. The method in brief:
as §1

A further assay addresses T3, KIT(A829P) (Homo sapiens, UniProt P10721, A829P).
T3 construct: purchased KinomeScan®
The following applies: read-out: % control. In outline: as §1

The target of another assay is T4, MLCK (Homo sapiens, UniProt Q32MK0).
T4 sequence (Q32MK0 1-819): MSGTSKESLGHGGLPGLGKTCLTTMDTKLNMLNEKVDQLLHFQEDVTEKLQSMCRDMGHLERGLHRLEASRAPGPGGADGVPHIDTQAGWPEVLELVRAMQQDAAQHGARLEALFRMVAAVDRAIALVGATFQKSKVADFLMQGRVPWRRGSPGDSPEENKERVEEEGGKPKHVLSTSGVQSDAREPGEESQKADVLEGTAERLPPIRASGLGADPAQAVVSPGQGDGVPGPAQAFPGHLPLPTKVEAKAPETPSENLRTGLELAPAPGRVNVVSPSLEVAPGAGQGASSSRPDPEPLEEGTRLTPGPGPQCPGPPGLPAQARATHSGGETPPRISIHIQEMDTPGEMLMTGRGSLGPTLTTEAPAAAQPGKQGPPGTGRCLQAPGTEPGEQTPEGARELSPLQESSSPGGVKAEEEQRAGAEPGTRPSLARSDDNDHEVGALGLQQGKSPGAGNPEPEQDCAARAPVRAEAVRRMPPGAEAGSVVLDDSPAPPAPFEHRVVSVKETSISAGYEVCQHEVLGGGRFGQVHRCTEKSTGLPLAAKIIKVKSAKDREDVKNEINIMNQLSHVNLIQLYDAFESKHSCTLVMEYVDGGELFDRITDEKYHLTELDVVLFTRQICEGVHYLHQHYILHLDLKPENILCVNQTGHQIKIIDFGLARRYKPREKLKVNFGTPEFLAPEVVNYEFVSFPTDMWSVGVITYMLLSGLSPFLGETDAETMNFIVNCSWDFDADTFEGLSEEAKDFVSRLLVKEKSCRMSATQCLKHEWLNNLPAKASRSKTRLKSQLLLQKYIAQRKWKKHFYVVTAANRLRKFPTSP
Particulars: read-out: % control. The method in brief:
as §1

The target in another assay is MYLK2 (Homo sapiens, UniProt Q9H1R3). Particulars: MYLK2, 1 μM; read-out: % control. The method in brief:
as §1

In another assay the target is T5, PIK3CA(H1047L) (Homo sapiens, UniProt P42336, H1047L).
T5 construct: purchased KinomeScan® (panel service)
T5 sequence (P42336 whole entry H1047L): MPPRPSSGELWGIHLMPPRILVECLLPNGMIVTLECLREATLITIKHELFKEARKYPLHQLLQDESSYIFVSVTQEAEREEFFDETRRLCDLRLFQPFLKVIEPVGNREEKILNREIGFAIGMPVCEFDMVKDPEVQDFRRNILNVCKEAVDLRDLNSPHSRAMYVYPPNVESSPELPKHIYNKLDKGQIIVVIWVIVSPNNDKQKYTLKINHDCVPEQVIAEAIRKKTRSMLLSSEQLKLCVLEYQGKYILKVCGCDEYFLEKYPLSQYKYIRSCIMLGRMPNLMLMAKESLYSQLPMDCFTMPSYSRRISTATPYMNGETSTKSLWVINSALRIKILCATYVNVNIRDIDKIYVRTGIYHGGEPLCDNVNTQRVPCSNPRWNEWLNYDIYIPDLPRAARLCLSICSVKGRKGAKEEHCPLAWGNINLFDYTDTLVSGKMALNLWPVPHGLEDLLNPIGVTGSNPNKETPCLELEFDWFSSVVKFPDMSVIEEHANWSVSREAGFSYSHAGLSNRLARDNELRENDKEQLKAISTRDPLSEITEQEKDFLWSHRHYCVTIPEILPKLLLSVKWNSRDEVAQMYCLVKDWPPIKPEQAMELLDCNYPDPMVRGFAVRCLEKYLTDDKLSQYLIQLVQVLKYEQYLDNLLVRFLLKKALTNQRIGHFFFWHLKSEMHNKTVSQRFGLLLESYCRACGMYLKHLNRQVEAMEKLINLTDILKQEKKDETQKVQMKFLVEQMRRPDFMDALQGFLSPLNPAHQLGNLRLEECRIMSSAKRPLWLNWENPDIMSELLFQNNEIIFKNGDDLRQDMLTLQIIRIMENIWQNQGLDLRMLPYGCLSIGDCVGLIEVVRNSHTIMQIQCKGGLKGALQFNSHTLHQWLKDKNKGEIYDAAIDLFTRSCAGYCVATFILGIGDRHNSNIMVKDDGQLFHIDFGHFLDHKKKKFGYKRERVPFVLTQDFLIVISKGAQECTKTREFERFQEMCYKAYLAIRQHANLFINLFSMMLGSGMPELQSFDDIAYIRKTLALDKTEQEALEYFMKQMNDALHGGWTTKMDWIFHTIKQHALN
Particulars: read-out: % control. The method in brief:
as §1

In a further assay the target is T6, SGK2 (Homo sapiens, UniProt Q9HBY8).
T6 construct: purchased KinomeScan® (panel service)
T6 sequence (Q9HBY8 1-367): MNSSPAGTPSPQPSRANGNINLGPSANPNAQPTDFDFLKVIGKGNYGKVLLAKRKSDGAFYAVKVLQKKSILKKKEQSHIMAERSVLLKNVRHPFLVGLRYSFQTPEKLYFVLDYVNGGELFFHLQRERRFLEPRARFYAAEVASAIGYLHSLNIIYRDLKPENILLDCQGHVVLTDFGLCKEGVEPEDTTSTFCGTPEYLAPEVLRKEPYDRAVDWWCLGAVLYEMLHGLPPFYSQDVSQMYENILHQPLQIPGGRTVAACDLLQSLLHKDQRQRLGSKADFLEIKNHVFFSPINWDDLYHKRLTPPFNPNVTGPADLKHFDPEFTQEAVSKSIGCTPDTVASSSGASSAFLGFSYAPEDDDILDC
The following applies: SGK2, 1 μM; read-out: % control. In outline:
as §1

In a further assay the target is TNK2 (Homo sapiens, UniProt Q07912). The following applies: TNK2, 1 μM; read-out: % control. The method in brief: as §1
Sequence of TNK2 (Q07912 whole entry): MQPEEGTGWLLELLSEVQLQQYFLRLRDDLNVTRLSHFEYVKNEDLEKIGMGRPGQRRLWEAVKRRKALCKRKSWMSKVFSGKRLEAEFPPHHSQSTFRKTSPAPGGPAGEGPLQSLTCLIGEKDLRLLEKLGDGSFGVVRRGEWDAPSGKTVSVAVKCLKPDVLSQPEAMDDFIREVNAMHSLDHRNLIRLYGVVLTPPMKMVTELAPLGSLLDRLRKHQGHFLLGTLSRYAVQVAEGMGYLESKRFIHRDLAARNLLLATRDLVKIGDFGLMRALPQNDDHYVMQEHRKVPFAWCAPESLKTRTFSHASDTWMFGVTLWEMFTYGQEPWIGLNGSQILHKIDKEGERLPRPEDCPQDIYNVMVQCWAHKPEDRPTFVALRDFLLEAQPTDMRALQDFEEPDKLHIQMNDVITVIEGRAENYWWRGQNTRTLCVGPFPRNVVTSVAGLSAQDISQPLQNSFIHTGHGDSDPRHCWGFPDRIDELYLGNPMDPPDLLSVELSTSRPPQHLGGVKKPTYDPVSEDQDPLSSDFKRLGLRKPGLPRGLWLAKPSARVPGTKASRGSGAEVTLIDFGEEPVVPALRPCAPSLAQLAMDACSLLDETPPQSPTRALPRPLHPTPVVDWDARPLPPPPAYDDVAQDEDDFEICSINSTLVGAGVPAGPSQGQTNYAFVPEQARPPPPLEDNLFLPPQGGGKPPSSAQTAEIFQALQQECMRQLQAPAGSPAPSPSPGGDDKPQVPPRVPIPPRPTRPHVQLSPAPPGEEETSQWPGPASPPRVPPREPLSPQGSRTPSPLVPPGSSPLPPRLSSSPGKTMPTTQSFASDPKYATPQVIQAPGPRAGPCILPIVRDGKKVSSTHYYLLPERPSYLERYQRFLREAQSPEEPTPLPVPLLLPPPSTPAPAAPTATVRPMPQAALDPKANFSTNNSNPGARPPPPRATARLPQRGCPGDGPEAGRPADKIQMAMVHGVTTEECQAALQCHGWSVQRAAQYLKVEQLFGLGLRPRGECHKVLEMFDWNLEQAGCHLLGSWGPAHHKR

Sequence of MYLK2 (Q9H1R3 whole entry): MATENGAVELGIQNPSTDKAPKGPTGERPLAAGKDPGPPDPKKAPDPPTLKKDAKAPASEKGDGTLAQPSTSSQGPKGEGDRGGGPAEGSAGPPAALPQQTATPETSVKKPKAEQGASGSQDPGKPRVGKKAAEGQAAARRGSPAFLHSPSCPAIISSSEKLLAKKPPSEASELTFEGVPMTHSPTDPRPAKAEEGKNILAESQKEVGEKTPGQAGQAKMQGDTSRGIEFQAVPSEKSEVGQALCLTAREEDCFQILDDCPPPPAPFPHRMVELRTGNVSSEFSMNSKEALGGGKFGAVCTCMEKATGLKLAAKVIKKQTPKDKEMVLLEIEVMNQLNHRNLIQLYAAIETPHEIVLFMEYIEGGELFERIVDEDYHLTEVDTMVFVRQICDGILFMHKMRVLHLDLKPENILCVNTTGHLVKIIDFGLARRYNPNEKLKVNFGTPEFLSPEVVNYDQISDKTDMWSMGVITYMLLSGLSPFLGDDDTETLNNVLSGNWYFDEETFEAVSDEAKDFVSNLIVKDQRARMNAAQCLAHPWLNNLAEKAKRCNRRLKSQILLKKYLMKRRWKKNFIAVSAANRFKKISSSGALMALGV
Sequence of EGFR(L858R, T790M) (P00533 25-1210 T790M/L858R): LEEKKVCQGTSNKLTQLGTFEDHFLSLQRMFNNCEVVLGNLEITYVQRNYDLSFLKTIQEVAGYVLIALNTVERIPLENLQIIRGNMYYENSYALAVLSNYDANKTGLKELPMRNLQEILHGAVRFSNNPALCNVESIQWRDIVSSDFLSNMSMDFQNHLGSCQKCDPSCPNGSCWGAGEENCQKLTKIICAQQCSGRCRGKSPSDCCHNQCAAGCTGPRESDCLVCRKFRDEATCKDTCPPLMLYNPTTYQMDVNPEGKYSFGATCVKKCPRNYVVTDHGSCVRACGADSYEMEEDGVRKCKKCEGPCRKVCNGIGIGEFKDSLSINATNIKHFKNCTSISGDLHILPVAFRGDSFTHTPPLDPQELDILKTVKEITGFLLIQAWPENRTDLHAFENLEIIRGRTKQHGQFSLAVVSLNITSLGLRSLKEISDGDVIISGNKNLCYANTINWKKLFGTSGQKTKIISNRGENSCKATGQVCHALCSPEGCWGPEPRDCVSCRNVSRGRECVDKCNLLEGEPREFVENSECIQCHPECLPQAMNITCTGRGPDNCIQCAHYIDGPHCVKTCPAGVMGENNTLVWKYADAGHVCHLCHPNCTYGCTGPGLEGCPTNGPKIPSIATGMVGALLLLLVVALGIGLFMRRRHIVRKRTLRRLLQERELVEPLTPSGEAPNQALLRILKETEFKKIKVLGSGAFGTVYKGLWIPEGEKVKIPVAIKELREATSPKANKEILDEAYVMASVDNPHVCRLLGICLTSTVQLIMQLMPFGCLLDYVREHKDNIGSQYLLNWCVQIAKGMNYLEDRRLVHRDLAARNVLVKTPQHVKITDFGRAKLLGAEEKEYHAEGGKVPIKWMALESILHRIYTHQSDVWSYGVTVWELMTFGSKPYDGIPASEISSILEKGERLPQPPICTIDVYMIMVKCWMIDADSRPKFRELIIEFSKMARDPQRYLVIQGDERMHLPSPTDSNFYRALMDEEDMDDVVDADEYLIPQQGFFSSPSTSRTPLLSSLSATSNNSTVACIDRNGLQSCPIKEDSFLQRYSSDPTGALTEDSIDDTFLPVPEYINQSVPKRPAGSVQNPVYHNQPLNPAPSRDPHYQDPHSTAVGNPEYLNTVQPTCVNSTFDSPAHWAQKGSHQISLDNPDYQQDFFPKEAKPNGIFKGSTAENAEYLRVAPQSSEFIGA
T3 sequence (P10721 26-976 A829P): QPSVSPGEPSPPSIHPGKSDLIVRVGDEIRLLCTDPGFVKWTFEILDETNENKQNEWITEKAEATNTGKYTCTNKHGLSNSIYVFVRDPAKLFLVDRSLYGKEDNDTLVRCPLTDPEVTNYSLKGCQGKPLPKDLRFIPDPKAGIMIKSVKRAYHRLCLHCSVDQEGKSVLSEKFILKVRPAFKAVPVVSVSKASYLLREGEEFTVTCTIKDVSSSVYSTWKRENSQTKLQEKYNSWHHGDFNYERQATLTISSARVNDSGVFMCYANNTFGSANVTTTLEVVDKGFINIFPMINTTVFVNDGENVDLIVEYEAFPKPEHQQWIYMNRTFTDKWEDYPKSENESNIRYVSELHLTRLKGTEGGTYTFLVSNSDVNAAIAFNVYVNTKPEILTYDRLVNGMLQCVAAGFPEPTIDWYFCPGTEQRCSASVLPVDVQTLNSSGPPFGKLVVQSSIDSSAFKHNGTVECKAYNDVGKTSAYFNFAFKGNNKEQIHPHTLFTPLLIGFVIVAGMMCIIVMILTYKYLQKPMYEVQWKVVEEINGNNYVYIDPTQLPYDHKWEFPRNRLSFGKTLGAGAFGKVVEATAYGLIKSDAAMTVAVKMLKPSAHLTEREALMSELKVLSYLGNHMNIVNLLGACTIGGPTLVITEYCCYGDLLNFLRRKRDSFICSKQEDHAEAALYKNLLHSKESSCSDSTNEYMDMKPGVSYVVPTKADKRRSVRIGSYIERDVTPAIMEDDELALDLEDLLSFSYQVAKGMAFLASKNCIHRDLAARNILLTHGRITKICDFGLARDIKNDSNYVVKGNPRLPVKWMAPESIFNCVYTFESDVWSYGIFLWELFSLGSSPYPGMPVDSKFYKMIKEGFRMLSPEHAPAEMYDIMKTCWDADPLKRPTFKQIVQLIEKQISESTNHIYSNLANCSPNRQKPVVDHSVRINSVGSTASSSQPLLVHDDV

For `CNc1c(-c2cnn([C@H]3CCN(C(C)=O)C[C@@H]3F)c2)cnc2[nH]cc(Cl)c12` [Compound 77, 1-((3S,4S)-4-(4-(3-chloro-4-(methylamino)-1H-pyrrolo[2,3-b]pyridin-5-yl)-1H-pyrazol-1-yl)-3-fluoropiperidin-1-yl)ethan-1-one], the remaining binding at 1 µM on CAMK4 stood at 100%; at EGFR(L858R, T790M) it was 99%; on ERK8, 92%; on KIT(A829P), 46%; on MLCK, 13%; on MYLK2, 79%. In addition, the remaining binding at 1 µM on PIK3CA(H1047L) came to 97%; at SGK2 it was 43%; at TNK2, 100%.

For `CNc1c(-c2ccc(C(=O)N3CCC(N4CCOCC4)CC3)cc2)cnc2[nH]cc(Cl)c12` [Compound 96, (4-(3-chloro-4-(methylamino)-1H-pyrrolo[2,3-b]pyridin-5-yl)phenyl)(4-morpholinopiperidin-1-yl)methanone], the remaining binding at 1 µM on CAMK4 was found to be 100%; at EGFR(L858R, T790M), 98%; at ERK8, 100%; at KIT(A829P), 53%; at MLCK, 5%; on MYLK2, 51%. Also, the remaining binding at 1 µM worked out at 92% at PIK3CA(H1047L), 30% at SGK2 and 94% at TNK2.

With `O=C(c1ccc(-c2cnc3[nH]cc(Cl)c3c2NC2CCCC2)cc1)N1CCC(N2CCOCC2)CC1` [Compound 101, (4-(3-chloro-4-(cyclopentylamino)-1H-pyrrolo[2,3-b]pyridin-5-yl)phenyl)(4-morpholinopiperidin-1-yl)methanone], the remaining binding at 1 µM on CAMK4 turned out to be 87%; at EGFR(L858R, T790M), 100%; on ERK8, 91%; on KIT(A829P), 100%; at MLCK it was 100%; on MYLK2 it was 94%. The results for the remaining binding at 1 µM on PIK3CA(H1047L), at SGK2 and on TNK2 were 100%, 65% and 98%, respectively.
